Data on 21 compounds can be found in patent publication US20130121994A1, “TRIAZOLOPYRIDINE DERIVATIVES” (BAYER INTELLECTUAL PROPERTY GMBH, priority 2009, published 2013).

For the test, the target named is T1, human kinase Mps-1 (Homo sapiens, UniProt P33981).
T1 construct: N-terminally GST-tagged human full length recombinant Mps-1 kinase; GST (N); purchased Invitrogen, Karslruhe, Germany PV4071
T1 sequence (P33981 1-857): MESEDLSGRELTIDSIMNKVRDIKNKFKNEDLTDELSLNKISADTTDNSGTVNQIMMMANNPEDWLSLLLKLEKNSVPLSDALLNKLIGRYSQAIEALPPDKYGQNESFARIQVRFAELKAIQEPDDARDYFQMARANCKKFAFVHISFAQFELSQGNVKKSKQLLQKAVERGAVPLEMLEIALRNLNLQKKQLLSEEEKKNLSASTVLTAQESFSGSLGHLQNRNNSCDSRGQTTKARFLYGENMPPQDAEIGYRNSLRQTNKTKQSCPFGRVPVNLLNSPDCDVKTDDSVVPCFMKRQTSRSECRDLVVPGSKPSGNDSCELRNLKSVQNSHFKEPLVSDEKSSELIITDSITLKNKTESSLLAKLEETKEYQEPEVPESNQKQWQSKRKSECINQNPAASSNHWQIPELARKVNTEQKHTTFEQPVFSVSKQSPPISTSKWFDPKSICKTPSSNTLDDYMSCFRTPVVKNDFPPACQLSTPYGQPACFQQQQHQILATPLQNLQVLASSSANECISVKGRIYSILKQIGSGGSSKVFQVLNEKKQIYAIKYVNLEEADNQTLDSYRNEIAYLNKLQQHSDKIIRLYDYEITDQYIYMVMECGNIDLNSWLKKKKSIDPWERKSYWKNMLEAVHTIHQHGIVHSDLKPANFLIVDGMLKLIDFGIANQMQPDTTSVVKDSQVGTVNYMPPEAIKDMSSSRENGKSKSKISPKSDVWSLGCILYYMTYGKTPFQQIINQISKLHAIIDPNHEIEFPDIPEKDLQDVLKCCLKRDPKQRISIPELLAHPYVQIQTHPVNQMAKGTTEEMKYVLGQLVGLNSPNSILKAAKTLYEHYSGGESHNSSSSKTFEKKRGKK
Briefly: Mps-1 kinase assay (HTRF). Format: biochemical. As to the method: The human kinase Mps-1 phosphorylates a biotinylated substrate peptide. Detection of the phosphorylated product is achieved by homogenous time-resolved fluorescence resonance energy transfer (HTRF) from Europium-labelled anti-phospho-Serine/Threonine antibody as donor to streptavidin labelled with cross-linked allophycocyanin (SA-XLent) as acceptor. Compounds are tested for their inhibition of the kinase activity.
N-terminally GST-tagged human full length recombinant Mps-1 kinase (purchased from Invitrogen, Karslruhe, Germany, cat. no PV4071) was used. As substrate for the kinase reaction a biotinylated peptide of the amino-acid sequence […] (C-terminus in amide form, purchased from Biosynthan GmbH, Berlin) was used.
The concentration of Mps-1 in the assay was adjusted to the activity of the enzyme lot and was chosen appropriate to have the assay in the linear range, typical enzyme concentrations were in the range of about 1 nM (final conc. in the 5 μl assay volume).
The resulting mixture was incubated 1 h at 22° C. to allow the binding of the phosphorylated peptide to the anti-phospho(Ser/Thr)-Europium-antibody. Subsequently the amount of phosphorylated substrate was evaluated by measurement of the resonance energy transfer from the Europium-labelled anti-phospho(Ser/Thr) antibody to the Streptavidin-XLent.
On the technique in general: TR-FRET usually uses a lanthanide donor and a delayed reading to cut background.
In turn, `CC(C)(C)NC(=O)c1ccc(-c2ccc3nc(Nc4ccccc4C#N)nn3c2)cc1` [Example 11.014, N-tert-butyl-4-{2-[(2-cyanophenyl)amino][1,2,4]triazolo[1,5-a]pyridin-6-yl}benzamide] yielded an IC50 of 42.5 nM.

On to `CCOCCNC(=O)c1ccc(Nc2nc3ccc(-c4ccc(C(=O)NCC(F)(F)F)cc4)cn3n2)c(OC)c1` [Example 11.015, N-(2-ethoxyethyl)-3-methoxy-4-[(6-{4-[(2,2,2-trifluoroethyl)carbamoyl]phenyl}[1,2,4]triazolo [1,5-a]pyridin-2-yl)amino]benzamide], for which the half-maximal inhibitory concentration (IC50) worked out at 1.64 nM.

As for `COc1cc(C(=O)NCC(C)(C)O)ccc1Nc1nc2ccc(-c3ccc(C(=O)NCC(F)(F)F)cc3)cn2n1` [Example 11.016, N-(2-hydroxy-2-methylpropyl)-3-methoxy-4-[(6-{4-[(2,2,2-trifluoroethyl)carbamoyl]phenyl}[1,2,4]triazolo [1,5-a]pyridin-2-yl)amino]benzamide], the IC50 came out at 1.29 nM.

The compound `COc1cc(C(=O)NC(C)(C)CO)ccc1Nc1nc2ccc(-c3ccc(C(=O)NCC(F)(F)F)cc3)cn2n1` [Example 11.017, N-(1-hydroxy-2-methylpropan-2-yl)-3-methoxy-4-[(6-{4-[(2,2,2-trifluoroethyl)carbamoyl]phenyl}[1,2,4]triazolo [1,5-a]pyridin-2-yl)amino]benzamide] yielded a half-maximal inhibitory concentration (IC50) of 1.73 nM.

Turning to `COc1cc(C(=O)NC(C)(C)CO)ccc1Nc1nc2ccc(-c3ccc(C(=O)NCC(F)(F)F)c(F)c3)cn2n1` [Example 11.018, 2-fluoro-4-[2-({4-[(1-hydroxy-2-methylpropan-2-yl)carbamoyl]-2-methoxyphenyl}amino)[1,2,4]triazolo[1,5-a]pyridin-6-yl]-N-(2,2,2-trifluoroethyl)benzamide], half-maximal inhibition (IC50) was put at 1.03 nM.

For the compound `COc1cc(C(=O)NCCO)ccc1Nc1nc2ccc(-c3ccc(C(=O)NCC(F)(F)F)cc3)cn2n1` [Example 11.019, N-(2-hydroxyethyl)-3-methoxy-4-[(6-{4-[(2,2,2-trifluoroethyl)carbamoyl]phenyl}[1,2,4]triazolo [1,5-a]pyridin-2-yl)amino]benzamide], it took 1.78 nM to reach half-maximal inhibition (IC50).

For `COc1cc(C(=O)N(C)CCN(C)C(C)=O)ccc1Nc1nc2ccc(-c3ccc(C(=O)NCC(F)(F)F)cc3)cn2n1` [Example 11.020, N-{2-[acetyl(methyl)amino]ethyl}-3-methoxy-N-methyl-4-[(6-{4-[(2,2,2-trifluoroethyl)carbamoyl]phenyl}[1,2,4]triazolo [1,5-a]pyridin-2-yl)amino]benzamide], the 50% inhibitory concentration (IC50) was 3.05 nM.

In the case of `COc1cc(C(=O)N(C)CCN(C)C(=O)OC(C)(C)C)ccc1Nc1nc2ccc(-c3ccc(C(=O)NCC(F)(F)F)cc3)cn2n1` [Example 11.021, tert-butyl {2-[{3-methoxy-4-[(6-{4-[(2,2,2-trifluoroethyl)carbamoyl]phenyl}[1,2,4]triazolo [1,5-a]pyridin-2-yl)amino]benzoyl}(methyl)amino]ethyl}methyl-carbamate], it took 3.5 nM to reach half-maximal inhibition (IC50).

Take `COc1cc(C(=O)NC(C)(C)CO)ccc1Nc1nc2ccc(-c3ccc(C(=O)NCC(C)C)cc3)cn2n1` [Example 11.022, N-(1-hydroxy-2-methylpropan-2-yl)-3-methoxy-4-[(6-{4-[(2-methylpropyl)carbamoyl]phenyl}[1,2,4]triazolo [1,5-a]pyridin-2-yl)amino]benzamide]: the IC50 was 4.36 nM.

`COc1cc(C(=O)NC(C)(C)CO)ccc1Nc1nc2ccc(-c3ccc(C(=O)NCCC(F)(F)F)cc3)cn2n1` [Example 11.023, N-(1-hydroxy-2-methylpropan-2-yl)-3-methoxy-4-[(6-{4-[(3,3,3-trifluoropropyl)carbamoyl]phenyl}[1,2,4]tria-zolo[1,5-a]pyridin-2-yl)amino]benzamide] returned an IC50 of 5.22 nM.

Compound `COc1cc(C(=O)NC(C)(C)CO)ccc1Nc1nc2ccc(-c3ccc(C(=O)NCC(F)(F)F)c(C)c3)cn2n1` [Example 11.024, 4-[2-({4-[(1-hydroxy-2-methylpropan-2-yl)carbamoyl]-2-methoxyphenyl}amino)[1,2,4]triazolo[1,5-a]pyridin-6-yl]-2-methyl-N-(2,2,2-trifluoroethyl)benzamide] showed a 50% inhibitory concentration (IC50) of 3.84 nM.

Compound `COc1cc(C(=O)NCC(C)(C)O)ccc1Nc1nc2ccc(-c3ccc(C(=O)NCCC(F)(F)F)cc3)cn2n1` [Example 11.025, N-(2-hydroxy-2-methylpropyl)-3-methoxy-4-[(6-{4-[(3,3,3-trifluoropropyl)carbamoyl]phenyl}[1,2,4]tria-zolo[1,5-a]pyridin-2-yl)amino]benzamide] registered a 50% inhibitory concentration (IC50) of 7.31 nM.

`COc1cc(C(=O)NC(C)(C)CO)ccc1Nc1nc2ccc(-c3ccc(C(=O)NCC(F)(F)F)c(Cl)c3)cn2n1` [Example 11.026, 2-chloro-4-[2-({4-[(1-hydroxy-2-methylpropan-2-yl)carbamoyl]-2-methoxyphenyl}amino)[1,2,4]triazolo[1,5-a]pyridin-6-yl]-N-(2,2,2-trifluoroethyl)benzamide] had a half-inhibitory concentration (IC50) of 4.08 nM.

The compound `CCN(CC)C(=O)c1ccc(Nc2nc3ccc(-c4ccc(C(=O)NCC(C)(C)C)cc4)cn3n2)c(OC)c1` [Example 11.027, 4-[(6-{4-[(2,2-dimethylpropyl)carbamoyl]phenyl}[1,2,4]tria-zolo[1,5-a]pyridin-2-yl)amino]-N,N-diethyl-3-methoxybenzamide] showed an IC50 of 35.8 nM.

Take `CCOc1cc(C(=O)NCCO)ccc1Nc1nc2ccc(-c3ccc(C(=O)NCC(F)(F)F)cc3)cn2n1` [Example 11.028, 3-ethoxy-N-(2-hydroxyethyl)-4-[(6-{4-[(2,2,2-trifluoroethyl)carbamoyl]phenyl}[1,2,4]triazolo [1,5-a]pyridin-2-yl)amino]benzamide]: the IC50 was ≤ 1 nM.

In the case of `CCOc1cc(C(=O)NC(C)(C)CO)ccc1Nc1nc2ccc(-c3ccc(C(=O)NCC(F)(F)F)cc3)cn2n1` [Example 11.029, 3-ethoxy-N-(1-hydroxy-2-methylpropan-2-yl)-4-[(6-{4-[(2,2,2-trifluoroethyl)carbamoyl]phenyl}[1,2,4]triazolo [1,5-a]pyridin-2-yl)amino]benzamide], the IC50 is ≤ 1 nM.

With `CCOc1cc(C(=O)NC(C)(C)C)ccc1Nc1nc2ccc(-c3ccc(C(=O)NCC(F)(F)F)cc3)cn2n1` [Example 11.030, N-tert-butyl-3-ethoxy-4-[(6-{4-[(2,2,2-trifluoroethyl)carbamoyl]phenyl}[1,2,4]triazolo [1,5-a]pyridin-2-yl)amino]benzamide], the concentration for half-maximal inhibition (IC50) is ≤ 1 nM.

In the case of `CCNC(=O)c1ccc(Nc2nc3ccc(-c4ccc(C(=O)NCC(F)(F)F)cc4)cn3n2)c(OCC)c1` [Example 11.031, 3-ethoxy-N-ethyl-4-[(6-{4-[(2,2,2-trifluoroethyl)carbamoyl]phenyl}[1,2,4]triazolo [1,5-a]pyridin-2-yl)amino]benzamide], the IC50 is ≤ 1 nM.

Consider `CCOc1cc(C(=O)NCC(C)(C)O)ccc1Nc1nc2ccc(-c3ccc(C(=O)NCC(F)(F)F)cc3)cn2n1` [Example 11.032, 3-ethoxy-N-(2-hydroxy-2-methylpropyl)-4-[(6-{4-[(2,2,2-trifluoroethyl)carbamoyl]phenyl}[1,2,4]triazolo [1,5-a]pyridin-2-yl)amino]benzamide], for which the half-inhibitory concentration (IC50) was ≤ 1 nM.

In the case of `CCOc1cc(C(=O)N(C)CCO)ccc1Nc1nc2ccc(-c3ccc(C(=O)NCC(F)(F)F)cc3)cn2n1` [Example 11.033, 3-ethoxy-N-(2-hydroxyethyl)-N-methyl-4-[(6-{4-[(2,2,2-trifluoroethyl)carbamoyl]phenyl}[1,2,4]triazolo [1,5-a]pyridin-2-yl)amino]benzamide], the concentration for half-maximal inhibition (IC50) was ≤ 1 nM.

In the case of `CCOc1cc(C(=O)NCC(C)(C)O)ccc1Nc1nc2ccc(-c3ccc(C(=O)NCCC(F)(F)F)cc3)cn2n1` [Example 11.034, 3-ethoxy-N-(2-hydroxy-2-methylpropyl)-4-[(6-{4-[(3,3,3-trifluoropropyl)carbamoyl]phenyl}[1,2,4]tria-zolo[1,5-a]pyridin-2-yl)amino]benzamide], half-maximal inhibition (IC50) required 1.38 nM.

Broadly, the IC50 is the concentration at which inhibition is half-maximal. A high value points to weaker potency.
